Laboratory results: US8263772B2, “MCH receptor antagonists” (Eli Lilly and Company, priority 2006, dated 2012)
Structures can show the parent of a compound that is named as a salt.

Assays:
[1] = tested on: diet-induced obese male Long-Evans rats; assay: In vivo efficacy: food intake and body weight change in diet-induced obese rats; set-up: species or system rat; settings: 10 mg/Kg, oral gavage once a day for 3 days
Protocol: Vehicle consisted of 10% acacia and 0.15% saccharin in water.
House animals individually in a temperature regulated room (24° C.) with a reverse 12 hour light/dark cycle (dark 10:00/22:00). Make water and food (Teklad 95217, Harlan, Wis.) available ad libitum. Dose compounds orally once a day before onset of dark for 3 days. Measure daily food intake and body weight change for the 3 day period. The compound of Example 25 produces an average body weight reduction of about 6 grams@10 mg/Kg versus vehicle control.

[2] = molecular target: T1, MCHR1 (Homo sapiens, UniProt Q99705); assay: 125I-MCH competitive binding assay with clone 43 membranes (SPA); settings: 125I-MCH binding, Ki from IC50 by Cheng-Prusoff
T1 construct: The full-length cDNA for human MCHR1 is cloned; expressed in transfected cells; host or cells: AV12 cells previously transfected with Gα15; membranes
Protocol: The full-length cDNA for human MCHR1 is cloned from a human adult brain cDNA library (Edge Biosystems, Cat. 38356) by standard polymerase chain reaction (PCR) methodology employing the following primers: sense, 5′-GCCACCATGGACCT GGAAGCCTCGCTGC-3′; anti-sense, 5′-[…]-3′. The PCR reaction is performed in a final volume of 50 μL containing 5 μL of a 10× stock solution of PCR buffer, 1 μL of 10 mM dNTP mixture (200 μM final), 2 μl of 50 mM Mg(SO4) (2 mM final), 0.5 μL of 20 μM solutions of each primer (0.2 μM final), 5 μL of template cDNA containing 0.5 ng DNA, 0.5 μL of Platinum Taq High Fidelity DNA polymerase (Gibco Life Technologies) and 36 μL of H2O. […]
In order to generate cell lines stably expressing MCHR1, subclone the insert into the Xba I and Not I sites of pcDNA(+)-3.1-neomycin (Invitrogen). […] The G418-resistant colonies are further selected for MCHR1 expression by measuring MCH-stimulated Ca^2+ transients with a fluorometric imaging plate reader (FLIPR, Molecular Devices). […]
Binding of compounds to MCHR1 is assessed in a competitive binding assay employing ^125I-MCH, compound and clone 43 membranes. […] Non-specific binding is assessed in the presence of 0.1 μM unlabeled MCH. Bound ^125I-MCH is determined by placing sealed plates in a Microbeta Trilux (Perkin Elmer Life and Analytical Sciences Inc.) and counting after a 12 h delay. […]

T1 sequence (Q99705 whole entry): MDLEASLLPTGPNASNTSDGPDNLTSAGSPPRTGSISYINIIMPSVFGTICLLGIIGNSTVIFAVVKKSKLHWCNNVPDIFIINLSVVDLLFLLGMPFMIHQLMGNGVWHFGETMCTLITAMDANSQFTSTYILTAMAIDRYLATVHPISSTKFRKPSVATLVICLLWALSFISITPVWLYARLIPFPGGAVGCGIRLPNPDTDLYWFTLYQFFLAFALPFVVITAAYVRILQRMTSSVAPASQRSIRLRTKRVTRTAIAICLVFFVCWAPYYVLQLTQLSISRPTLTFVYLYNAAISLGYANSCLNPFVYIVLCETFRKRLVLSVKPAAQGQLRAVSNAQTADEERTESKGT

Ki [2] [nM]	SMILES	average body weight reduction versus vehicle control [1]
–	COc1cc(N2CCc3cc(-c4ccc(Cl)cc4)sc3C2=O)ccc1NC(=O)CN1CCCC1.Cl [Example 25, N-{4-[2-(4-Chloro-phenyl)-7-oxo-4,7-dihydro-5H-thieno[2,3-c]pyridin-6-yl]-2-methoxy-phenyl}-2-pyrrolidin-1-yl-acetamide hydrochloride]	about 6 grams
~3	O=C(CN1CCCC1)Nc1ccc(-n2ccc3cc(-c4ccc(Cl)cc4)sc3c2=O)cc1 [Example 58, N-{4-[2-(4-Chloro-phenyl)-7-oxo-7H-thieno[2,3-c]pyridin-6-yl]-phenyl}-2-pyrrolidin-1-yl-acetamide, hydrochloride]	–
